From publication PMC11882969 (Nature Communications, 2025)
Several values for one entry are separate records, joined by “and”; a condition that tells them apart may be missing. Equal values may be shown once. Read-outs that look alike come from different tables or passages of the source.

What was measured:
[1] = tested on: mice; experiment: Hargreaves radiant heat test; type: in vivo, mouse
[2] = tested on: mice; experiment: Catalepsy test, vertical wire mesh; type: in vivo, mouse
Protocol: Thirty min after an i.p. injection of the compounds, mice were placed on a vertical wire mesh and the latency to move all four paws was recorded.

[3] = Pharmacokinetics: plasma, brain, CSF; settings: 0.2 mg/kg i.p., CD-1 mice
[4] = tested on: mice; experiment: Conditioned place preference; type: in vivo, mouse; settings: for Individual animal scores (FigS11e): test not printed on the sheet; for conditioned place preference: drug-paired vs vehicle-paired chamber
Protocol: Briefly, mice were first habituated to the test apparatus, twice, and their preference for each chamber recorded for 30 min (Pretest). Two conditioning days followed in which mice received the vehicle control or the compound, and 30 min later restricted for 30 min in the preferred or non-preferred chamber, respectively. On day 5 (Test day), mice were allowed to roam freely between the 3 chambers of the apparatus and their preference for each chamber recorded for 30 min. To calculate the CPP score, we subtracted the time spent in each chamber of the box on the Pretest day from that of the Test day (CPP score = Test - Pretest).

[5] = tested on: mice
Protocol: For all behavioral tests, the experimenter was always blind to treatment. Animals were first habituated for 30-60 min in Plexiglas cylinders and then tested 30 min after i.p. or i.t. injection of the compounds. The thermal (Hargreaves, hotplate and tail flick) and ambulatory (rotarod) tests were conducted as described[96]. Briefly, hindpaw thermal sensitivity was measured with a radiant heat source (Hargreaves) or on a hotplate at 52 °C. For the tail flick assay, sensitivity was measured by immersing the tail into a 50 °C water bath. For the ambulatory (rotarod) test, before testing with any compound, mice underwent three trainings on three consecutive days until they reach 300 sec. Each training has three sessions of five min each. Therapeutic window was calculated as the ratio of the minimum dose of side effect phenotype to the minimum dose of analgesic phenotype.

[6] = tested on: mice; experiment: Acetone test, cold allodynia after spared nerve injury; type: in vivo, mouse
Protocol: Mice were placed on a wire mesh and thirty min after an i.p. injection of the compounds we applied a drop (50 μL) of acetone on the ventral aspect of the hindpaw, 5 times every 30 sec. We recorded the number of nocifensive behaviors (paw lifts/licks/shakes/bites) over the 5 applications.

[7] = tested on: mice; experiment: Hot plate, 52 °C; type: in vivo, mouse
[8] = tested on: mice; experiment: Rotarod test; type: in vivo, mouse
[9] = in vitro; settings: mouse, plasma
Protocol: The reactions were stopped by adding 240 μL 90% acetonitrile containing internal standard with subsequent plasma proteins sedimentation by centrifuging at 5796 g for 5 min. Supernatants were analyzed by the HPLC system coupled with a tandem mass spectrometer. The percentage of the test compounds remaining after incubation in plasma and their half-lives (T1/2) were calculated.

[10] = molecular target: T1, human PTH receptor (PTHR) (Homo sapiens, UniProt Q03431); experiment: Gs bioSens-All control assay; type: cell-based; settings: raw signal, log[PTH]
T1 construct: expressed in transfected cells; host or cells: HEK293 (HEK293SL) cells, transient co-transfection with the Gαs biosensor
T1 sequence (Q03431 27-593): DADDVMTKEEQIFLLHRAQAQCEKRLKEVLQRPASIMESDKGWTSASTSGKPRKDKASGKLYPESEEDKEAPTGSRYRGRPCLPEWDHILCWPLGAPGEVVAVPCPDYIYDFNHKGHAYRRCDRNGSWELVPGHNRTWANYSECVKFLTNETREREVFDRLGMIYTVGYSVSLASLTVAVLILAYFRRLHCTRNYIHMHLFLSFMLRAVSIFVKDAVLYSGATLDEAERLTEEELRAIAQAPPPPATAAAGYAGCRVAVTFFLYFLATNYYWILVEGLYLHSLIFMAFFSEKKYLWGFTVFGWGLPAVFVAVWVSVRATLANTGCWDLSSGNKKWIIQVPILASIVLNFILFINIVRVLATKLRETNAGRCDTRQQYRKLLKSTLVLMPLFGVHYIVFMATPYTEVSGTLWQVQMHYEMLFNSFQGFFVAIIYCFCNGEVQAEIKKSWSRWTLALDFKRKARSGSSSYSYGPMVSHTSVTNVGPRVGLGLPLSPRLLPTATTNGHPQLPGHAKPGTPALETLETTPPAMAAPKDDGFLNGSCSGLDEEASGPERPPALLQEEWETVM
From the text: Experimental data were produced in singleton and curves were fitted using the four-parameter logistic non-linear regression model (GraphPad Prism 9). Data are expressed as uBRET.

[11] = tested on: mice; experiment: Tail flick, 50 °C water bath; type: in vivo, mouse; settings: for analgesic response normalised to baseline, WT vs CB1R KO (Figure5d), individual animals: 10 mg/kg
[12] = 0.2 mg/kg, individual animals, FigS11b

CCCCCCC(C)(C)c1ccc([C@@H]2C[C@H](O)CC[C@H]2CCCO)c(O)c1 [CP-55,940, reference compound]
lowest dose with significantly increased latency, Hargreaves ([1]; i.p., 30 min after injection): 0.2 mg/kg | catalepsy (Figure6c), individual animals ([2]; 0.2 mg/kg dose): 17 and 15 and 13 and 3 and 5 | catalepsy (Figure6c), individual animals ([2]; 0.5 mg/kg dose): 6.8 and 5 (2×) and 30 and 5.6 and 4 and 2 (2×) and 7 and 8.5 | catalepsy (Figure6c), individual animals ([2]; 1 mg/kg dose): 15.3 and 23.3 and 17.7 and 28 and 15.7 | dose at which catalepsy starts ([2]; i.p.): 0.2 mg/kg | brain Cmax [3]: 19.2 ng/g | brain T1/2 [3]: 127 min | Individual animal scores (FigS11e) ([4]; 0.5 mg/kg): -18 and -21 and -54 and 119 and -213 and 8 and -326 and -238 | conditioned place preference [4]: may actually induce some aversion | therapeutic window, Acetone ([5]; Figure 6e, vs rotarod): 1 | therapeutic window, Hot Plate ([5]; Figure 6e, vs rotarod): 0.4 | therapeutic window, Tail Flick ([5]; Figure 6e, vs rotarod): 0.4 | therapeutic window, analgesia vs catalepsy ([5]; Figure 6f): no window between analgesia and catalepsy | therapeutic window, Acetone ([5]; Figure 6d, vs open field): 1 | therapeutic window, Hot Plate ([5]; Figure 6d, vs open field): 0.4 | therapeutic window, Tail Flick ([5]; Figure 6d, vs open field): 0.4 | acetone test response after spared nerve injury (Figure5b), individual animals ([6]; Dose 0.2 mg/kg): 36 and 40 and 48 and 76 | effect on acetone-induced nocifensive behaviors ([6]; spared nerve injury, i.p.): strongly reduced spared nerve injury-induced cold allodynia | Jump [7, 12]: 18 and 0 (2×) and 4 (2×) | Paw lick [7, 12]: 0 (4×) and 10 | Paw shake [7, 12]: 0 (2×) and 6 and 12 and 8 | Paw withdrawal [7, 12]: 18 and 34 and 32 and 36 and 64 | hot plate response normalised to baseline (Figure4b), individual animals ([7]; Dose 0.2 mg/kg): 98.1 and 121.1 and 123.4 and 122.6 and 97.5 | hot plate response normalised to baseline (Figure4b), individual animals ([7]; Dose 0.5 mg/kg): 256.6 and 226.6 and 210.5 and 222.4 and 213.7 | lowest dose with significantly increased hot plate latency ([7]; i.p., 30 min after injection): 0.5 mg/kg | rotarod performance (Figure6b), individual animals ([8]; Dose 0.1 mg/kg): 284 and 282 and 285 and 300 | rotarod performance (Figure6b), individual animals ([8]; Dose 0.2 mg/kg): 261 and 257 and 210 and 300 and 91 and 161 and 258 and 208 and 236 and 275 | rotarod performance (Figure6b), individual animals ([8]; Dose 1.0 mg/kg): 200 and 204 and 173 and 236 and 203 | motor impairment at analgesic doses ([8]; rotarod and open field): caused motor impairment in both the rotarod and open field tests

CCCCCCC(C)(C)c1ccc([C@@H]2C[C@H](O)CC[C@H]2CCCO)c(O)c1 [CP-55940]
Dose response, individual animals (FigS11a) ([1]; Dose 0.2 mg/kg, test not printed on the sheet): 256.9 and 109.7 and 71.66 and 121.4 and 287.7

CC(C)[N+](C)(CCOC(=O)C1c2ccccc2Oc2ccccc21)C(C)C [Propantheline, reference compound]
half-life at 1 µM [9]: 28 min | remaining at 20 min, 1 µM [9]: 75% | remaining at 40 min, 1 µM [9]: 50% | remaining at 1 h, 1 µM [9]: 31% | remaining at 2 h, 1 µM [9]: 6%

PTH
PTH control response ([10]; M -6.22186): 5622 | PTH control response ([10]; M -6.53946): 5653 | PTH control response ([10]; M -6.85696): 5394 | PTH control response ([10]; M -7.17551): 5221 | PTH control response ([10]; M -7.49499): 5149 | PTH control response ([10]; M -7.80694): 5011 | PTH control response ([10]; M -8.11922): 4856 | PTH control response ([10]; M -8.44613): 4893 | PTH control response ([10]; M -8.76448): 5167 | PTH control response ([10]; M -9.07573): 5440 | PTH control response ([10]; M -9.22186): 6053 | PTH control response ([10]; M -9.39794): 5806 | PTH control response ([10]; M -9.68787): 6475 | PTH control response ([10]; M -10.1552): 7581 | PTH control response ([10]; M -10.6199): 8362 | PTH control response ([10]; M -11.0969): 9720 | PTH control response ([10]; M -11.5529): 9963 | PTH control response ([10]; M -12.0177): 10394 | PTH control response ([10]; M -12.4948): 10587 | PTH control response ([10]; M -12.9208): 10667 | PTH control response ([10]; M -13.3979): 10336 | PTH control response ([10]; M -13.8861): 10932 | PTH control response ([10]; M -14): 11358 and 10843

CN1CC[C@]23c4c5ccc(O)c4O[C@H]2[C@@H](O)C=C[C@H]3[C@H]1C5 [morphine, reference compound]
Individual animal scores (FigS11e) ([4]; 20 mg/kg): 125 and 92 and 189 and -5 and 874 and 419 and 158 and 182 | conditioned place preference [4]: significantly increased their preference | analgesic response normalised to baseline, WT vs CB1R KO (Figure5d), individual animals ([11]; CB1R KO mice): 186.205 and 193.839 and 225.055 and 193.021 and 200.382 | Response relative to baseline (baseline about 100) ([11]; Morphine 3 mg/kg, individual animals, sheet Figure7b, test not given): 153.4 and 95 and 153.1 and 101.6 and 124.1 and 132.6 and 140.4 and 96.4 and 125 and 194 and 137 and 131 and 126 and 149.7 and 136.2 | analgesic response normalised to baseline, WT vs CB1R KO (Figure5d), individual animals ([11]; WT mice): 138.803 and 169.174 and 209.668 and 177.834 and 174.541
